In patent US7259265B2, “Coumarin compounds and method for preparing and using the same” (Shanghai Institute of Organic Chemistry, Chinese Academy of …, priority 2003, dated 2007):
In brackets after ≈: the same amount, converted by molar mass. Where two headings read alike, the source gives them in different places.

Assays:
Aspergillus niger = assay: In vitro drug sensitivity MIC test; type: cell-based
Protocol: (§1) The tested fungi were confected to a suspension with normal saline, and further diluted to a suspension with the turbidity of more than 2.0 McFarland Standards (McF). Then, the suspension was diluted 100 times with normal saline, and diluted 10 times with RPMI1640, and the sample was diluted 2 times, which was cultured for 72 to 96 hours at a 96-well culture dish while being gently agitated and assayed for photoelectric colorimetric assay at 490 nm.
(§2) Tested fungi include Saccharomyces, candida Albicans 01-5, 01-1, 02-6, candida Albicans CMCC, Aspergillus niger, Cryptococcus neoformans, Trichophyton rubrum, and Trichophyton verrucosum and MIC Results were listed at Table 2.

Cryptococcus neoformans = assay: In vitro drug sensitivity MIC test; type: cell-based
Protocol: as §1, §2

candida Albicans 02-6 [1] = assay: In vitro drug sensitivity MIC test; type: cell-based
Protocol: as §1, §2

candida Albicans 01-1 = assay: In vitro drug sensitivity MIC test; type: cell-based
Protocol: as §1, §2

Trichophyton rubrum = assay: In vitro drug sensitivity MIC test; type: cell-based
Protocol: as §1, §2

candida Albicans 01-5 = assay: In vitro drug sensitivity MIC test; type: cell-based
Protocol: as §1, §2

Saccharomyces = assay: In vitro drug sensitivity MIC test; type: cell-based
Protocol: as §1, §2

candida Albicans [2] = assay: In vitro drug sensitivity MIC test; type: cell-based
Protocol: as §1, §2

Trichophyton verrucosum = assay: In vitro drug sensitivity MIC test; type: cell-based
Protocol: as §1, §2

candida Albicans CMCC = assay: In vitro drug sensitivity MIC test; type: cell-based
Protocol: as §1, §2

[3] = Acute toxicity test, oral, ICR mice (Example 22); details: for mortality: single oral dose (5 g/kg for 4,4′-biisofraxidin)
Description: Acute toxicity of 4,4′-biisofraxidin and Fluoconazole were simultaneously evaluated and the toxicity reaction and mortality were observed and compared for values of LD50 for ICR mice which were orally administered with 4,4′-biisofraxidin or Fluoconazole.

CHL cell = assay: Chromosome aberration test of CHL mammal cell; type: cell-based; details: for mutagenicity: 24 hours, -S9
Protocol: The purpose of the Example was to assess whether 4,4′-biisofraxidin caused the chromosome aberration of CHL cell. Firstly, Median Inhibitory Concentration (IC50) was obtained by general method and regarded as the maximum dosage. Then, the maximum dosage was diluted at 0.5 time at multiple times to get three dosage groups. The experiment was conducted at a —S9 system (without hamster liver S9 system). […] The antifungal compound was added to the cultured cell directly for 24 hours in order to observe whether 4,4′-biisofraxidin caused chromosome aberration in CHL cell. […] Therefore, 4,4′-biisofraxidin was a weak mutagen at a relatively high dosage under the test conditions.

[4] = Acute toxicity test in vivo in mice (Example 21); details: for death: after testing 14 days, 14 mice (4,4′-biisofraxidin), 4 mice (Fluoroconazole)
candida Albicans [5] = assay: Inhibiting zone on candida Albicans; type: cell-based; details: at the concentration of 10 μg/ml
Protocol: [drawing 30] was tested by Jiangsu Hengrui Pharmaceutical Co., Ltd. The bioactivity against fungal infection of various antibiotics were tested.

[6] = tested on: mice medulla polychromatic erythrocyte; assay: Micronucleus test of mice medulla; type: in vivo, ICR mice
Protocol: Seventy ICR mice were randomly divided into 7 groups with 10 mice per group having 5 males and 5 females in each group. The maximum tolerance dose (MTD) of the mice was more than 5000 mg/kg for 4,4′-biisofraxidin by intragastric gavage, so that the maximum dosage was 5000 mg/kg. Four dosage groups were set up with dosage amount of 5000, 2500, 1250, and 625 mg/kg, one negative and one positive control group. The intragastric gavage was carried out at once per day consecutively for 2 days. Samples were taken at 24 hours after the last intragastric administration and inspected under microscope.

[7] = tested on: S. Typhimurium TA97, TA98, TA 100, and TA102; assay: Bacteria reverse mutation test; type: cell-based; details: without S9
Protocol: According to the conditions of mutation test in the Guide Compilation of New Medicament (Western Medicament) Before Clinic (Pharmacy, Pharmacology, and Toxicology) (Edition July 1993, Bureau of Pharmaceutical Policy, Chinese Department of Health), 4,4′-biisofraxidin was tested at a dosage of 5, 50, 500, 1000, and 5000 μg/dish in the system without S9.

candida Albicans 02-6 [8] = assay: In vivo protective test in infected mice; details: for ED50: infection 2.07 × 10^4 CFU/ml; for Survival: 10 mice, within 7 days after infection
Protocol: 2˜3 monocolonies of selected tested fungus were inoculated in Sabouraud liquor culture medium, which was cultured for 18 hours at 37° C., and then it was diluted with 5% sterilized dried yeast liquor for next uses.
3. Healthy mice (lived in Kunming, China) weighed 18˜22 g were divided into groups randomly with 5 mice in each group. The fungal liquor 0.5 ml was injected into a mouse, which was observed continuously for 7 days after infection. Mortality of the mice was recorded, and the minimum fungal dose that caused the mice be with a 100% mortality was named as MLD, which also was regarded as infection fungal dose in vivo protective test.
All test drugs were confected to requested concentration with 0.5% CMC including Fluoroconazole and 4,4′-biisofraxidin.
Test mice were divided into groups randomly according to gender and weight, 5 males and 5 females in each group. The infection fungal liquor 0.5 ml was injected into each mouse at the abdominal region at 0.5 ml per mouse. Two hours prior to the infection and 4 hours after infection, mice were orally administered with Fluoroconazole or 4,4′-biisofraxidin by intragastric gavage at various concentration. The comparative group was tested at the same time. Mortality was recorded within 7 days after infection, and effective dosage at half (median effective dose, ED50) and 95% confidence limit were calculated by the Bliss's method. Fluoroconazole and 4,4′-biisofraxidin were tested on their in vivo protection activity on candida Albicans 02-6 infected mice, and ED50 was calculated by the Bliss's method at 95% confidence limit.

[9] = Comparison of liver toxicity, serum ALT/AST of ICR mice; type: in vivo; details: 1.6 g/kg oral, mean (values of each sample)
Protocol: ICR mice were orally administered with 4,4′-biisofraxidin or Fluoconazole at the same dosage of 1.6 g/kg, and blood samples were taken at 4 hours and 24 hours after the administration, and serum was separated from blood samples for testing liver indices of asparate aminotransferase test (AST) and alanine aminotransferase test (ALT).

[10] = candida Albicans, second strain without code (r8)
[11] = drug dose 65.5 mg/kg, intragastric gavage
[12] = drug dose 89.2 mg/kg, intragastric gavage
[13] = drug dose 102.4 mg/kg, intragastric gavage
[14] = drug dose 128 mg/kg, intragastric gavage
[15] = drug dose 160 mg/kg, intragastric gavage
[16] = drug dose 200 mg/kg, intragastric gavage

## 4,4′-biisofraxidin
Aspergillus niger
  MIC: 128 µg/mL
Cryptococcus neoformans
  MIC: 64 µg/mL
Candida Albicans 02-6 [1]
  MIC: 32 µg/mL
Candida Albicans 01-1; candida Albicans 01-1
  MIC: 64 µg/mL
Trichophyton rubrum
  MIC: 16 µg/mL
Candida Albicans 01-5; candida Albicans 01-5
  MIC: 64 µg/mL
Saccharomyces
  MIC: >128 µg/mL
Candida Albicans [2]; candida Albican, summary in the conclusion
  MIC: ≥ 128 µg/mL
Candida Albicans [2]; candida Albicans, first strain without code (r7)
  MIC: 64 µg/mL
Candida Albicans [2]; [10]
  MIC: >128 µg/mL
Trichophyton verrucosum
  MIC: 128 µg/mL
Candida Albicans CMCC
  MIC: >128 µg/mL
[3]; single oral dose
  toxicity reaction: no obvious toxicity reaction
[3]
  mortality: 0/10
[3]; single oral dose, 14 days observation
  MTD: higher than 5 g/kg
CHL cell; CHL cell
  Median Inhibitory Concentration (IC50): 248 µg/mL
CHL cell; high dosage 248 μg/ml
  mutagenicity: 12%
CHL cell; low to medium dosage (62, 124 μg/ml)
  mutagenicity: 1%
CHL cell; relatively high dosage
  chromosome aberration conclusion: weak mutagen
[4]
  death: no death
[4]; mice, 14 days
  MTD: more than 5 g/kg
  half lethal dose (LD50): undetectable
Candida Albicans [5]
  inhibiting zone: 10 mm
[6]; 5000, 2500, 1250, 625 mg/kg, intragastric, once per day for 2 days, 24 hours after last dose
  micronucleus number: no effect on inducing increase in micronucleus number
[6]; mice, intragastric gavage
  maximum tolerance dose (MTD): more than 5000 mg/kg
[7]; high dose 5000 μg/dish
  effect on growth of bacteria: inhibit the growth
[7]; other dosages
  gene mutation: couldn't induce gene mutation
[7]; other four doses (5, 50, 500, 1000 μg/dish)
  effect on growth of bacteria: no obvious effect
Candida Albicans 02-6 [8]; Bliss's method
  95% confidence limit of ED50: (127.97–130.7) mg/kg
Candida Albicans 02-6 [8]; Bliss's method, intragastric gavage
  ED50: 149.50 mg/kg
Candida Albicans 02-6 [8]; [11]
  Survival rate (%): 0%
  Survival: 0
Candida Albicans 02-6 [8]; [12]
  Survival rate (%): 10%
  Survival: 1
Candida Albicans 02-6 [8]; [13]
  Survival rate (%): 20%
  Survival: 3
Candida Albicans 02-6 [8]; [14]
  Survival rate (%): 40%
  Survival: 4
Candida Albicans 02-6 [8]; [15]
  Survival rate (%): 60%
  Survival: 6
Candida Albicans 02-6 [8]; [16]
  Survival rate (%): 70%
  Survival: 7
Candida Albicans 02-6 [8]; intragastric gavage
  protective effect in vivo: obvious protective effect

## OC(Cn1cncn1)(Cn1cncn1)c1ccc(F)cc1F [Fluoroconazole, reference compound]
Aspergillus niger
  MIC: > 128 µg/mL
Cryptococcus neoformans; read-out: MIC
  MIC: 16 µg/mL (≈ 52.2 µM)
Candida Albicans 02-6 [1]; read-out: MIC
  MIC: 64 µg/mL (≈ 209 µM)
Candida Albicans 01-1; Candida albicans
  MIC: 128 µg/mL (≈ 418 µM)
Trichophyton rubrum; read-out: MIC
  MIC: 16 µg/mL (≈ 52.2 µM)
Candida Albicans 01-5; Candida albicans
  MIC: 128 µg/mL (≈ 418 µM)
Saccharomyces; read-out: MIC
  MIC: 64 µg/mL (≈ 209 µM)
Candida Albicans [2]; Candida albicans
  MIC: > 128 µg/mL
Candida Albicans [2]; [10]
  MIC: >128 µg/mL
Trichophyton verrucosum
  MIC: 128 µg/mL (≈ 418 µM)
Candida Albicans CMCC; read-out: MIC
  MIC: 64 µg/mL (≈ 209 µM)
[3]; single oral dose
  toxicity reaction: dispirited and inert
[3]
  mortality: 2/4
[9]; 4 hours after treatment
  ALT (U/L): 84.5 (87, 82) U/L
  AST (U/L): 189.5 (155, 224) U/L
[9]; 24 hours after treatment
  ALT (U/L): 53.5 (40, 67) U/L
  AST (U/L): 99 (73, 125) U/L
[4]; ICR, mouse, in vivo, 1.6 g/kg
  LD50 at 14 days: ~1600 mg/kg
[4]
  death: 2
[4]; mouse, in vivo
  toxicity relative to 4,4′-biisofraxidin: three times larger
Candida Albicans 02-6 [8]; Candida albicans, Bliss's method, intragastric gavage, read-out: ED50
  ED50: 136 mg/kg
Candida Albicans 02-6 [8]; [11]
  Survival rate (%): 0%
  Survival: 0
Candida Albicans 02-6 [8]; [12]
  Survival rate (%): 20%
  Survival: 2
Candida Albicans 02-6 [8]; [13]
  Survival rate (%): 40%
  Survival: 4
Candida Albicans 02-6 [8]; [14]
  Survival rate (%): 40%
  Survival: 4
Candida Albicans 02-6 [8]; [15]
  Survival rate (%): 60%
  Survival: 6
Candida Albicans 02-6 [8]; [16]
  Survival rate (%): 80%
  Survival: 8
